Test results: PubChem BioAssay AID248 (DTP/NCI, 2004)
“And” between values parts separate entries of the source, which are not always exact repeats. Equal entries are not always repeated. Inconclusive results and toxic doses are left out.

Tested on: L1210 leukemia ip in BDF1 mice, survival T/C
Assay: NCI In Vivo Anticancer Drug Screen. Data for tumor model L1210 Leukemia (intraperitoneal) in B6D2F1 (BDF1) mice
Details: endpoint: mean survival time, higher = longer survival
Procedure, shortened: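 In this screen, tumor-bearing mice given compound are compared to those given vehicle, and their survival values are reported as a treated-to-control quotient.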

[1] = dose: 100.0 mg/kg/injection, schedule: Q01DX009 (ip), vehicle: Klucel (hydroxypropylcellulose) (HPC)
[2] = dose: 100.0 mg/kg/injection, schedule: Q04DX003 (ip), vehicle: Klucel (hydroxypropylcellulose) (HPC)
[3] = dose: 200.0 mg/kg/injection, schedule: Q01DX009 (ip), vehicle: Klucel (hydroxypropylcellulose) (HPC)
[4] = dose: 200.0 mg/kg/injection, schedule: Q04DX003 (ip), vehicle: Klucel (hydroxypropylcellulose) (HPC)
[5] = dose: 400.0 mg/kg/injection, schedule: Q01DX009 (ip), vehicle: Klucel (hydroxypropylcellulose) (HPC)
[6] = dose: 400.0 mg/kg/injection, schedule: Q04DX003 (ip), vehicle: Klucel (hydroxypropylcellulose) (HPC)
[7] = dose: 100.0 mg/kg/injection, schedule: Q01DX009 (ip), vehicle: saline with Tween-80
[8] = dose: 200.0 mg/kg/injection, schedule: Q01DX009 (ip), vehicle: saline with Tween-80
[9] = dose: 200.0 mg/kg/injection, schedule: Q04DX003 (ip), vehicle: saline with Tween-80
[10] = dose: 400.0 mg/kg/injection, schedule: Q04DX003 (ip), vehicle: saline with Tween-80
[11] = dose: 100.0 mg/kg/injection, schedule: Q04DX003 (ip), vehicle: saline
[12] = dose: 200.0 mg/kg/injection, schedule: Q04DX003 (ip), vehicle: saline
[13] = dose: 400.0 mg/kg/injection, schedule: Q04DX003 (ip), vehicle: saline
[14] = dose: 400.0 mg/kg/injection, schedule: Q01DX009 (ip), vehicle: saline with Tween-80
[15] = dose: 100.0 mg/kg/injection, schedule: Q04DX003 (ip), vehicle: saline with Tween-80
[16] = dose: 50.0 mg/kg/injection, schedule: Q01DX009 (ip), vehicle: saline
[17] = dose: 100.0 mg/kg/injection, schedule: Q01DX009 (ip), vehicle: saline
[18] = dose: 200.0 mg/kg/injection, schedule: Q01DX009 (ip), vehicle: saline
[19] = dose: 100.0 mg/kg/injection, schedule: Q04DX002 (ip), vehicle: Klucel (hydroxypropylcellulose) (HPC)
[20] = dose: 200.0 mg/kg/injection, schedule: Q04DX002 (ip), vehicle: Klucel (hydroxypropylcellulose) (HPC)
[21] = dose: 400.0 mg/kg/injection, schedule: Q04DX002 (ip), vehicle: Klucel (hydroxypropylcellulose) (HPC)

COc1ccc(CCn2ccc(C(=O)O)cc2=O)cc1OC
T/C [1]: 89 % of control
T/C [2]: 91 % of control
T/C [3]: 101 % of control
T/C [4]: 94 % of control
T/C [5]: 99 % of control
T/C [6]: 105 % of control

CSc1ccc(NC(=O)Oc2ccccn2)cc1
T/C (dose: 100.0 mg/kg/injection, schedule: Q01DX001 (ip), vehicle: saline with Tween-80): 89 % of control
T/C [7]: 97 % of control
T/C (dose: 100.0 mg/kg/injection, schedule: Q04DX002 (ip), vehicle: saline with Tween-80): 93 % of control and 94 % of control
T/C (dose: 200.0 mg/kg/injection, schedule: Q01DX001 (ip), vehicle: saline with Tween-80): 103 % of control
T/C [8]: 90 % of control
T/C (dose: 200.0 mg/kg/injection, schedule: Q04DX002 (ip), vehicle: saline with Tween-80): 96 % of control and 114 % of control
T/C [9]: 88 % of control
T/C (dose: 400.0 mg/kg/injection, schedule: Q01DX001 (ip), vehicle: saline with Tween-80): 105 % of control
T/C (dose: 400.0 mg/kg/injection, schedule: Q04DX002 (ip), vehicle: saline with Tween-80): 95 % of control and 96 % of control
T/C [10]: 97 % of control

O=C(Nc1ccccc1F)OCCOc1ccccc1Cl
T/C [1]: 115 % of control
T/C [3]: 112 % of control
T/C [5]: 124 % of control

O=C(Nc1ccccc1Cl)N(Cc1ccccc1)c1ccccc1
T/C [1]: 99 % of control
T/C [2]: 96 % of control
T/C [3]: 91 % of control
T/C [4]: 94 % of control
T/C [5]: 94 % of control
T/C [6]: 96 % of control

CCNC(=O)C1C2CCC(C2)C1C(=O)NCC (stereo unspecified)
T/C [11]: 104 % of control
T/C [12]: 87 % of control
T/C [13]: 96 % of control

CC(=O)C1(C)OC(c2ccccc2)=NC1=O (stereo unspecified)
T/C (dose: 100.0 mg/kg/injection, schedule: Q01DX001 (ip), vehicle: saline): 104 % of control
T/C (dose: 200.0 mg/kg/injection, schedule: Q01DX001 (ip), vehicle: saline): 93 % of control
T/C (dose: 400.0 mg/kg/injection, schedule: Q01DX001 (ip), vehicle: saline): 115 % of control

CC(C)c1ccc(/C=N/NC(=S)Nc2ccccc2)cc1
T/C [1]: 93 % of control
T/C [3]: 93 % of control
T/C [5]: 90 % of control

CCCCOC(=O)C(C)OC(=O)Nc1cccc(Cl)c1 (stereo unspecified)
T/C [7]: 93 % of control
T/C [8]: 95 % of control
T/C [14]: 90 % of control

N#Cc1c(N)sc2c1CCCC2
T/C [7]: 98 % of control
T/C [15]: 102 % of control
T/C [8]: 95 % of control
T/C [9]: 98 % of control
T/C [14]: 101 % of control
T/C [10]: 101 % of control

COC(=O)C(C)NC(=O)Cc1ccccc1 (stereo unspecified)
T/C [7]: 94 % of control
T/C [15]: 98 % of control
T/C [8]: 92 % of control
T/C [9]: 101 % of control
T/C [14]: 92 % of control
T/C [10]: 97 % of control

CC(O)C(=O)OCCOc1ccc(Cl)cc1Cl (stereo unspecified)
T/C [16]: 670 % of control
T/C [17]: 91 % of control
T/C [11]: 100 % of control
T/C [18]: 95 % of control
T/C [12]: 100 % of control
T/C [13]: 97 % of control

O=C(O)COc1c(Cl)cc(Cl)cc1Cl
T/C [19]: 100 % of control
T/C [20]: 100 % of control
T/C [21]: 96 % of control

CC(=O)OCc1cc(=O)n(C)c2c3c4c(cc12)c(C)cc(=O)n4CO3
T/C (dose: 100.0 mg/kg/injection, schedule: Q01DX001 (ip), vehicle: Klucel (hydroxypropylcellulose) (HPC)): 109 % of control
T/C [2]: 104 % of control
T/C (dose: 200.0 mg/kg/injection, schedule: Q01DX001 (ip), vehicle: Klucel (hydroxypropylcellulose) (HPC)): 114 % of control
T/C [4]: 117 % of control
T/C (dose: 400.0 mg/kg/injection, schedule: Q01DX001 (ip), vehicle: Klucel (hydroxypropylcellulose) (HPC)): 118 % of control
T/C [6]: 123 % of control

C/C(=N\NS(=O)(=O)c1ccccc1)C(C)C
T/C (dose: 75.0 mg/kg/injection, schedule: Q01DX001 (ip), vehicle: saline): 101 % of control
T/C (dose: 150.0 mg/kg/injection, schedule: Q01DX001 (ip), vehicle: saline): 98 % of control
T/C (dose: 300.0 mg/kg/injection, schedule: Q01DX001 (ip), vehicle: saline): 96 % of control

C/C(=C\CN1C(=O)c2ccccc2C1=O)CCC(=O)O
T/C (dose: 25.0 mg/kg/injection, schedule: Q01DX009 (ip), vehicle: saline): 109 % of control
T/C [16]: 101 % of control
T/C [17]: 109 % of control
T/C [18]: 111 % of control
T/C (dose: 400.0 mg/kg/injection, schedule: Q01DX009 (ip), vehicle: saline): 106 % of control

CSc1nc([N+](=O)[O-])c2cnccn12
T/C (dose: 6.25 mg/kg/injection, schedule: Q01DX009 (ip), vehicle: saline with Tween-80): 88 % of control
T/C (dose: 12.5 mg/kg/injection, schedule: Q01DX009 (ip), vehicle: saline with Tween-80): 93 % of control
T/C (dose: 12.5 mg/kg/injection, schedule: Q04DX003 (ip), vehicle: saline with Tween-80): 101 % of control
T/C (dose: 25.0 mg/kg/injection, schedule: Q01DX009 (ip), vehicle: saline with Tween-80): 93 % of control
T/C (dose: 25.0 mg/kg/injection, schedule: Q04DX003 (ip), vehicle: saline with Tween-80): 103 % of control
T/C (dose: 50.0 mg/kg/injection, schedule: Q01DX009 (ip), vehicle: saline with Tween-80): 93 % of control

CC1(C)N=C(N)N=C(N)N1c1ccc(CCC(=O)Nc2ccc(S(=O)(=O)F)cc2)cc1
T/C (dose: 0.8 mg/kg/injection, schedule: Q01DX009 (ip), vehicle: saline): 97 % of control
T/C (dose: 4.0 mg/kg/injection, schedule: Q01DX009 (ip), vehicle: saline): 105 % of control
T/C (dose: 8.8 mg/kg/injection, schedule: Q01DX009 (ip), vehicle: saline): 117 % of control
T/C (dose: 13.0 mg/kg/injection, schedule: Q01DX009 (ip), vehicle: saline): 121 % of control
T/C (dose: 20.0 mg/kg/injection, schedule: Q01DX009 (ip), vehicle: saline): 121 % of control
T/C [16]: 163 % of control
T/C (dose: 75.0 mg/kg/injection, schedule: Q## X003 (ip), vehicle: saline): 122 % of control
T/C [18]: 100 % of control
T/C (dose: 600.0 mg/kg/injection, schedule: Q## X003 (ip), vehicle: saline): 102 % of control

CCOC(=O)C(O)C1(Cl)CCC(C(C)(C)C)CC1 (stereo unspecified)
T/C (dose: 100.0 mg/kg/injection, schedule: Q04DX002 (ip), vehicle: saline): 103 % of control
T/C (dose: 200.0 mg/kg/injection, schedule: Q04DX002 (ip), vehicle: saline): 106 % of control
T/C (dose: 400.0 mg/kg/injection, schedule: Q04DX002 (ip), vehicle: saline): 106 % of control

CCCCc1c(C)c2c(O)cc(C)cc2oc1=O
T/C (dose: 100.0 mg/kg/injection, schedule: Q01DX001 (ip), vehicle: acetone): 92 % of control
T/C (dose: 200.0 mg/kg/injection, schedule: Q01DX001 (ip), vehicle: acetone): 95 % of control
T/C (dose: 400.0 mg/kg/injection, schedule: Q01DX001 (ip), vehicle: acetone): 92 % of control

COc1ccc(CCN2C(=O)c3cccc4c([N+](=O)[O-])ccc(c34)C2=O)cc1OC
T/C [1]: 100 % of control
T/C [3]: 94 % of control
T/C [5]: 93 % of control

O=CNC(NC=O)c1ccccc1[N+](=O)[O-]
T/C [1]: 101 % of control
T/C [2]: 104 % of control
T/C [3]: 98 % of control
T/C [4]: 98 % of control
T/C [5]: 97 % of control
T/C [6]: 100 % of control

COC1CCC(CCNC(N)=O)CC1OC (stereo unspecified)
T/C [19]: 100 % of control
T/C [20]: 117 % of control
T/C [21]: 90 % of control

CN(C)Cc1cc(C(C)(C)C)cc(C2CCCCC2)c1O
T/C [7]: 100 % of control
T/C [8]: 94 % of control
T/C [14]: 107 % of control

CC(=O)OC1CCC2(C)C(=CCC3C2CCC2(C)C3CC3C(c4ccccc4)=NN(c4ccccc4)C32C#N)C1 (stereo unspecified)
T/C [19]: 103 % of control
T/C [20]: 92 % of control
T/C [21]: 98 % of control
